Values after ≈ are worked out from the molar mass of the structure shown. Read-outs that look alike come from different tables or passages of the source.
Columns and labels:
[1] = Pharmacokinetics and excretion in Beagle dogs after IV or IM 14C-Genistein (Example 9); assay type: in vivo; conditions: for AUC0-inf / AUC0-tlast / Cmax / Extrapolation / ke1 / tlast / Bioavailibility: male Beagle dogs, total radioactivity; for Bioavailibility: Group 2 single IM 20 mg/kg vs IV, from AUC0-tlast
Description: (§1) Male Beagle dogs were administered a single IV bolus dose (Group 1, nominal 20 mg/kg) or a single IM dose (Group 2, nominal 20 mg/kg) of 14C-Genistein (results shown in Table 11). The Genistein suspension formulation used was prepared as described in Example 8, Following dosing, the content and concentration of radioactivity in blood, plasma and excreta, and the non-compartmental pharmacokinetics of total radioactivity in whole blood and plasma were determined. The concentration of radioactivity in both dose formulations was measured pre and post dose by liquid scintillation spectroscopy and was similar on both occasions. The radiochemical stability of the test article in both dose formulations was assessed prior to and following the administration of the dose. The mean stability values for pre and post dose samples from the intravenous dose formulation (Group 1) were 100% and 99.6%, respectively. The mean stability values for pre and post dose samples from the intramuscular dose formulation (Group 2) were 99.2% and 98.9%, respectively. Therefore, the ^14C-Genistein in both formulations was considered to have been radiochemically stable throughout the dosing period.
(§2) Whole-blood samples were collected and plasma was obtained by centrifugation. The concentration of radioactivity in whole-blood and plasma was measured by liquid scintillation spectroscopy.

[2] = Radiochemical stability of the test article in dose formulations; assay type: physicochemical; conditions: for mean stability value (radiochemical): dog study; for mean radiochemical stability: mouse study
Description: The concentration of radioactivity in both dose formulations was measured pre and post dose by liquid scintillation spectroscopy and was similar on both occasions. The radiochemical stability of the test article in both dose formulations was assessed prior to and following the administration of the dose. The mean radiochemical stability of the test article in the dose formulation samples from the intramuscular dose formulation (Group 2) were 98.5% and 98.2%, respectively. The mean radiochemical stability values for pre and post dose samples from the intravenous dose formulation (Group 3) were 98.3% and 98.5%, respectively. Therefore, the ^14C-Genistein in both formulations was considered to have been radiochemically stable throughout the dosing period.
as §1

[3] = Pharmacokinetics and excretion in mice after IV or IM 14C-Genistein (Example 8); assay type: in vivo; conditions: for Bioavailibility / AUC0-inf / AUC0-tlast / Cmax / Extrapolation / ke1 / tlast: male CD1 mice, total radioactivity; for Bioavailibility: Group 2 single IM 200 mg/kg vs IV; for Excretion recovery: by 168 hours post dose
Description: As shown in the results of Table 10, male CD1 mice were administered a single IM dose (Group 2, nominal 200 mg/kg) or a single IV bolus dose (Group 3, nominal 50 mg/kg) of ^14C-Genistein. The genistein formulation used was a suspension formulation that includes genistein suspended in sterile water with 0.2% (w/w) Polysorbate 80 and 5% (w/w) PVP K17. […] Following dosing, the content and concentration of radioactivity in blood, plasma, excreta and carcass, and the non-compartmental pharmacokinetics of total radioactivity in whole blood and plasma were determined, Following dose administration, the extent and severity of any clinical signs was assessed.
as §2

[4] = 25° C.; cited from earlier work
[5] = Solubility of genistein in vehicles at 25° C.; assay type: physicochemical
Description: Calculated pka's for genistein range from 7-9, with the predicted solubility increasing above pH 7 in accordance with the lowest pKa. The calculated properties were used to design the appropriate pH range for the pH-solubility profile of genistein in several acceptable cosolvents, which was established to be pH 6-9.
The solubility of genistein in water is not detectable at pH 6-7, which implies the solubility is less than 0.02 mg/mL or ˜0.00002 g/g H2O (lowest concentration), Based on the pH-solubility and solubility in cosolvents, it was determined that PEG400 would be the cosolvent to achieve highest solubility. Since parenteral formulations preferably have a maximum of 50% organic component, the addition of Ethanol (EtOH), Nmethylpyrrolidone (NMP) and a surfactant were considered, since these would be expected to enhance absorption from the injection site. Ethanol has the added benefit of reducing viscosity. […] Solubility was further evaluated in two aqueous/organic mixtures with concentrations acceptable for a parenteral dosage form. Additionally, cyclodextrin formulations were evaluated.

[6] = Group 1 single IV bolus 20 mg/kg, blood
[7] = Group 1 single IV bolus 20 mg/kg, plasma
[8] = Group 2 single IM 20 mg/kg, blood
[9] = Group 2 single IM 20 mg/kg, plasma
[10] = Group 2 single IM 200 mg/kg, blood
[11] = Group 2 single IM 200 mg/kg, plasma
[12] = Group 3 single IV bolus 50 mg/kg, blood
[13] = Group 3 single IV bolus 50 mg/kg, plasma

## O=c1c(-c2ccc(O)cc2)coc2cc(O)cc(O)c12 [14C-Genistein]
[1]; dogs, Group 1 IV
  Excretion recovery by 168 hours post dose: approximately 87.9%
[1]; dogs, Group 1 IV bolus 20 mg/kg
  Blood to plasma ratios: less than 1
[1]; dogs, Group 1 IV bolus 20 mg/kg, first time point analyzed
  time post dose of highest mean concentration of radiolabelled material in plasma and whole blood: 15 min
[1]; dogs, Group 2 IM
  Excretion recovery by 168 hours post dose: ~85.8%
[1]; dogs, Group 2 IM 20 mg/kg
  time post dose of highest mean concentration of radioactivity in plasma and whole blood: 2 h
[1]; dogs, Group 2 IM 20 mg/kg, any time post dose
  Blood to plasma ratios: less than 1
[1]; dogs, IV bolus 20 mg/kg and IM 20 mg/kg, considered to be dose-related
  Clinical signs: Clinical signs were observed in both groups
[1]; dogs, both dose routes
  excretion mass balance: greater than 85%
  time within which the majority of the dose administered was excreted: ≤ 48 h
[1]; dogs, both groups
  overall mean excretion mass balance of radioactivity: 86-88 % of the administered dose
[1]; [6]
  AUC0-inf: 122 μg eq · h/mL
  AUC0-tlast: 117 μg eq · h/mL
  Cmax: 40.4 μg eq/mL
  Extrapolation: 16.8%
  ke1: 0.0130 h⁻¹
  tlast: 120 h
[1]; [7]
  AUC0-inf: 227 μg eq · h/mL
  AUC0-tlast: 201 μg eq · h/mL
  Cmax: 94.4 μg eq/mL
  Extrapolation: 11.3%
  ke1: 0.0138 h⁻¹
  tlast: 120 h
[1]; blood
  Bioavailibility: 92.9%
[1]; plasma
  Bioavailibility: 96.1%
[1]; [8]
  AUC0-tlast: 108 μg eq · h/mL
  Cmax: 5.39 μg eq/mL
  tlast: 168 h
[1]; [9]
  AUC0-inf: 228 μg eq · h/mL
  AUC0-tlast: 193 μg eq · h/mL
  Cmax: 10.9 μg eq/mL
  Extrapolation: 15.1%
  ke1: 0.0092 h⁻¹
  tlast: 168 h
[2]; intramuscular dose formulation (Group 2), post dose
  mean stability value (radiochemical): 98.9%
[2]; intramuscular dose formulation (Group 2), pre dose
  mean stability value (radiochemical): 99.2%
[2]; intravenous dose formulation (Group 1), post dose
  mean stability value (radiochemical): 99.6%
[2]; intravenous dose formulation (Group 1), pre dose
  mean stability value (radiochemical): 100%
[2]; intramuscular dose formulation (Group 2), following dosing
  mean radiochemical stability: 98.2%
[2]; intramuscular dose formulation (Group 2), prior to dosing
  mean radiochemical stability: 98.5%
[2]; intravenous dose formulation (Group 3), post dose
  mean radiochemical stability: 98.5%
[2]; intravenous dose formulation (Group 3), pre dose
  mean radiochemical stability: 98.3%
[3]; main study male mice, single IM 200 mg/kg or single IV 50 mg/kg
  treatment-related clinical signs: No treatment-related clinical signs were observed
[3]; blood
  Bioavailibility: 49.7%
[3]; plasma
  Bioavailibility: 83.5%
[3]; [10]
  AUC0-inf: 223 μg eq · h/mL
  AUC0-tlast: 222 μg eq · h/mL
  Cmax: 33.3 μg eq/mL
  Extrapolation: 0.663%
  ke1: 0.0242 h⁻¹
  tlast: 168 h
[3]; [11]
  AUC0-inf: 387 μg eq · h/mL
  AUC0-tlast: 375 μg eq · h/mL
  Cmax: 63.1 μg eq/mL
  Extrapolation: 3.18%
  ke1: 0.0145 h⁻¹
  tlast: 168 h
[3]; [12]
  AUC0-inf: 112 μg eq · h/mL
  AUC0-tlast: 99.7 μg eq · h/mL
  Cmax: 60.1 μg eq/mL
  Extrapolation: 11.4%
  ke1: 0.0118 h⁻¹
  tlast: 168 h
[3]; [13]
  AUC0-inf: 116 μg eq · h/mL
  AUC0-tlast: 116 μg eq · h/mL
  Cmax: 108 μg eq/mL
  Extrapolation: 0.191%
  ke1: 0.0307 h⁻¹
  tlast: 168 h
[3]; mice, 200 mg/kg (IM) and 50 mg/kg (IV)
  tolerability of dose level: well tolerated
[3]; mice, Group 2 IM 200 mg/kg, any time post dose
  Blood to plasma ratios: less than 1
[3]; mice, Group 2 IM 200 mg/kg, first time point analyzed
  time post dose of highest mean concentration of radioactivity in plasma and whole blood: 30 min
[3]; mice, Group 2 IM
  Excretion recovery: ~92%
[3]; mice, Group 3 IV 50 mg/kg, 0 to 24 hours
  blood-to-plasma ratios: less than 1
[3]; mice, Group 3 IV 50 mg/kg, first time point analyzed
  time post dose of highest mean concentration of radiolabelled material in plasma and whole blood: 30 min
[3]; mice, Group 3 IV
  Excretion recovery: approximately 93%
[3]; mice, both dose routes
  time within which the majority of the dose administered was excreted: ≤ 24 h

## O=c1c(-c2ccc(O)cc2)coc2cc(O)cc(O)c12 [Genistein, 5,7-dihydroxy-3-(4-hydroxyphenyl)-chromen-4-one]
[4]
  parts water required to dissolve one part genistein: greater than 50,000 parts water
[5]; 25 °C, aqueous with cosolvent or surfactant or cyclodextrin, thermodynamic from solid, 30% Hydroxypropyl-β-cyclodextrin, read-out: Solubility of GENISTEIN at 25° C.
  solubility: 6 mg/mL (≈ 22.2 mM)
[5]; 25 °C, aqueous with cosolvent or surfactant or cyclodextrin, thermodynamic from solid, 30% Sulfobutylether-β-cyclodextrin, read-out: Solubility of GENISTEIN at 25° C.
  solubility: 8 mg/mL (≈ 29.6 mM)
[5]; 25 °C, organic solvent or mixture, thermodynamic from solid, Dimethyl acetamide (DMA), read-out: Solubility at 25° C.
  solubility: 141 mg/mL (≈ 523 mM)
[5]; 25 °C, organic solvent or mixture, thermodynamic from solid, Ethanol, read-out: Solubility at 25° C.
  solubility: 25 mg/mL (≈ 92.5 mM)
[5]; 25 °C, organic solvent or mixture, thermodynamic from solid, N-methyl pyrrolidone (NMP), read-out: Solubility at 25° C.
  solubility: 238 mg/mL (≈ 881 mM)
[5]; 25 °C, organic solvent or mixture, thermodynamic from solid, Polyethylene Glycol 300 (PEG300), read-out: Solubility at 25° C.
  solubility: 110 mg/mL (≈ 409 mM)
[5]; 25 °C, organic solvent or mixture, thermodynamic from solid, Polyethylene Glycol 400 (PEG400), read-out: Solubility at 25° C.
  solubility: 115 mg/mL (≈ 426 mM)
[5]; 25 °C, organic solvent or mixture, thermodynamic from solid, Propylene Glycol, read-out: Solubility at 25° C.
  solubility: 6.2 mg/mL (≈ 22.9 mM)
[5]; 25 °C, pH 6, aqueous buffer, thermodynamic from solid, pH 6-7, not detectable, lowest concentration, read-out: solubility in water
  solubility: < 0.02 mg/mL
[5]; 25 °C, pH 7, aqueous with cosolvent or surfactant or cyclodextrin, thermodynamic from solid, 10% Polysorbate 80/10% EtOH/40% PEG400/40% 25 mM Phosphate Buffered Saline (pH 7), read-out: Solubility of GENISTEIN at 25° C.
  solubility: 12 mg/mL (≈ 44.4 mM)
[5]; 25 °C, pH 7, aqueous with cosolvent or surfactant or cyclodextrin, thermodynamic from solid, 10% Polysorbate 80/10% NMP/40% PEG400/40% 25 mM Phosphate Buffered Saline (pH 7), read-out: Solubility of GENISTEIN at 25° C.
  solubility: 19 mg/mL (≈ 70.3 mM)
[5]; 25 °C, pH 7, aqueous with cosolvent or surfactant or cyclodextrin, thermodynamic from solid, 10% Polysorbate 80/40% PEG400/50% 25 mM Phosphate Buffered Saline (pH 7), read-out: Solubility of GENISTEIN at 25° C.
  solubility: 11 mg/mL (≈ 40.7 mM)
[5]; 25 °C, pH 9, aqueous buffer, thermodynamic from solid, Borate buffer pH 9, 7 days
  solubility at 7 days: 0.043 mg/mL (≈ 0.159 mM)
[5]; 25 °C, pH 9, aqueous buffer, thermodynamic from solid, Borate buffer pH 9, 14 days
  solubility at 14 days: 0.005 mg/mL (≈ 0.0185 mM)
[5]; Borate buffer pH 9, 3 days
  Solubility at 25° C.: Not detected
[5]; Citrate buffer pH 6
  Solubility at 25° C.: Not detected
[5]; Phosphate buffer pH 7
  Solubility at 25° C.: Not detected
[5]; TRIS buffer pH 8
  Solubility at 25° C.: Not detected
[5]; pH 6-7, not detectable, lowest concentration
  solubility in water: < 0.00002 g/g H2O
[5]; pH 9
  stability in pH-solubility profile: degradation was observed

Source: patent US10729674B2, “Nanoparticle isoflavone compositions and methods of making and using the same” (Humanetics Corporation, priority 2010, dated 2020)
